Measurements as given in patent US20090176817A1, “Method of Treatment of Diarrhea-Predominant Irritable Bowel Syndrome in a Subject” (priority 2005, published 2009).
Read-outs that look alike come from different tables or passages of the source.

Experiments:
healthy subjects = experiment: Study K.241.5012: gastric emptying time, healthy young subjects; format: in vivo, human; settings: mean (SD), not significant vs placebo
Description: The effect of cilansetron on gastric emptying time and colonic transit time has been studied in 1 clinical study in healthy young subjects and 2 studies in elderly subjects. For measurement of gastric emptying time, breath samples for the determination of the ^12C/^13C ratio were taken on the last day of each treatment period immediately after ingestion of a ^13C labeled meal. The patients' breath was collected in separate 15-minute intervals, for four hours in total. ^13CO2 measurements were performed with an isotope ratio mass spectrometer. The half-life (TK) and lag-time (Tlag), which describe the duration of gastric emptying, were used as the primary parameters to evaluate gastric emptying time. In all 3 studies, colonic transit time was measured by administration of radio-opaque markers for the last six days of each treatment period, followed by a single abdominal X-ray image at 24 hours after ingestion of the last set of markers. The numbers of markers within the colon were used to calculate segmental (right colon, left colon, and rectosigmoid) and total colonic transit time.
Study K.241.5013 was a randomized, double-blind, placebo-controlled, 3-way crossover study in 12 healthy male subjects (ITT population), aged 20-27 years. Subjects received cilansetron 4 mg, cilansetron 8 mg, or placebo orally TID for 14 days during each of the treatment periods, with a 14-day washout between periods. The primary efficacy parameter was the total mean colonic transit time during each treatment and the secondary parameters were the segmental colonic transit times and the gastric emptying measurements. A one-sided Dunnett t-test procedure was used to compare efficacy parameters between the cilansetron and placebo treatments.

clinical [1] = settings: both, human, in vivo, po, 8 mg
clinical [2] = settings: human, in vivo; for half-life: T½
Protocol: Two randomized, double-blind, placebo controlled, balanced incomplete block design, crossover studies evaluated the single- and multiple-dose pharmacokinetics of oral cilansetron over a 8 mg to 32 mg dose range. In both studies, subjects were randomized to receive two of three treatments during 2 treatment periods. In one study (12 male and 13 female subjects, aged 23 to 36 years), subjects received 8 mg cilansetron, 16 mg cilansetron, or placebo, while in another study (12 males and 13 females, aged 23 to 41 years), subjects received 16 mg cilansetron, 32 mg cilansetron, or placebo. During each treatment period, subjects received a single dose of their assigned treatment on the first day, followed by a 3-day washout, after which they received the same treatment TID for 5 days.
There was a 5-6 day washout period between treatment periods. Doses on the mornings of pharmacokinetic days were administered under fasted conditions. Serial blood sampling and urine collection was performed up to 12 hours following morning dosing on the first day (single dose) and on the last multiple dosing day of each treatment period, and cilansetron pharmacokinetic parameters were evaluated.
In two randomized, double-blind, placebo controlled, balanced incomplete block design, crossover studies evaluating the single- and multiple-dose pharmacokinetics of oral cilansetron over a 8 mg to 32 mg dose range, subjects were randomized to receive two of three treatments during 2 treatment periods. In Study S.241.1.101; (12 male and 13 female subjects, aged 23 to 36 years), subjects received 8 mg cilansetron, 16 mg cilansetron, or placebo, while in Study S.24 1.1.102; (12 males and 13 females, aged 23 to 41 years), subjects received 16 mg cilansetron, 32 mg cilansetron, or placebo. During each treatment period, subjects received a single dose of their assigned treatment on the first day, followed by a 3-day washout, after which they received the same treatment TID for 5 days. There was a 5-6 day washout period between treatment periods. Doses on the mornings of pharmacokinetic days were administered under fasted conditions. Serial blood sampling and urine collection was performed up to 12 hours following morning dosing on the first day (single dose) and on the last multiple dosing day of each treatment period, and cilansetron pharmacokinetic parameters were evaluated.

[3] = system: purified human alpha-1 acid glycoprotein (AAG); format: in vitro ADME
Protocol: (§1) Protein binding was also evaluated in an in vitro study in human, mouse, rat, and dog plasma using equilibrium dialysis (12-14K molecular weight cut-off membrane). This study measured the binding of (^14C)-cilansetron in plasma at nominal concentrations (30, 90, and 300 ng/mL) which are much higher than those encountered in vivo in humans. This study also measured the binding of (^14C)-cilansetron to purified human serum albumin at cilansetron concentrations ranging from 30-3000 ng/mL and to purified human alpha-1 acid glycoprotein (AAG) at concentrations ranging from 30-10000 ng/mL.

[4] = target: purified human serum albumin (Homo sapiens, UniProt P02768); format: in vitro ADME
Protocol: as §1

[5] = format: in vitro ADME
Protocol: as §1

CYP1A2 = CYP1A2 (Homo sapiens, UniProt P05177); experiment: biochemical
[6] = system: diarrhea-predominant IBS subjects; experiment: Study S241.3.009: interruption of activities assessment; format: in vivo, human; settings: for Percentage of Subjects Who Worsened from Baseline: Interruption of Activities: S241.3.009, 2 mg TID, observed value
Description: Studies S24 1.3.OO6, S24 1.3.0 1 1, and S24 1.3.009 used the following efficacy measurements: • The subjects answered the following three questions with “yes” or “no” using a phone diary at the end of each week: • a) During the last week, did you experience adequate relief of your IBS symptoms, such as abdominal pain, abdominal discomfort, abnormal bowel habits? • b) During the last week, did you experience adequate relief of your abdominal pain and/or discomfort? • c) During the last week, did you experience adequate relief of your abnormal bowel habits? • The subjects rated the following symptoms using the phone diary at the end of each day: • abdominal pain/discomfort (five-point scale); • stool consistency (seven-point Bristol Stool Scale); • stool frequency (number of bowel movements each day); • urgency (five-point scale); • straining (yes or no); • feeling of incomplete defecation (yes or no); • bloating or feeling of abdominal distension (five-point scale). • In Studies S241 A006 and S241.3.009, subjects completed the IBS-QOL Survey at Baseline (Day 1) and at the end of treatment. In Study S24 1.3.0 1 1, subjects completed the IBS-QOL Survey at Baseline (Day 1), at the end of the three-month treatment period, and at the end of rerandomized treatment.
Other secondary efficacy parameters for all three studies included: • Responder rate for the weekly diary questions on adequate relief at each month, where a responder for a month (monthly responder) was defined as a subject who answered the weekly question with “yes” at least twice for that month. The responder rate was the percentage of responders within a treatment group. The all-month responder rate for the weekly diary questions on adequate relief was also evaluated, where an all-month responder was defined as a subject who answered the weekly question with “yes” at least twice for each month. The all-month responder rate was the percentage of all-month responders within a treatment group; • Adequate relief rate for the weekly diary questions was calculated for each subject as the number of weekly assessments with adequate relief (“yes”) divided by the total number of weekly assessments; • Percentage of subjects with adequate relief for the weekly diary questions at each week; • Daily diary questions regarding abdominal pain/discomfort (five-point scale), stool consistency (seven-point scale), stool frequency (number of bowel movements each day), straining (yes or no), urgency (five-point scale), feeling of incomplete evacuation (yes or no), and bloating or feeling of abdominal distention (five-point scale); • QOL data assessed by the IBS-QOL questionnaire; and • Question to determine the interruption of activities.

Sequence of CYP1A2 (P05177 whole entry): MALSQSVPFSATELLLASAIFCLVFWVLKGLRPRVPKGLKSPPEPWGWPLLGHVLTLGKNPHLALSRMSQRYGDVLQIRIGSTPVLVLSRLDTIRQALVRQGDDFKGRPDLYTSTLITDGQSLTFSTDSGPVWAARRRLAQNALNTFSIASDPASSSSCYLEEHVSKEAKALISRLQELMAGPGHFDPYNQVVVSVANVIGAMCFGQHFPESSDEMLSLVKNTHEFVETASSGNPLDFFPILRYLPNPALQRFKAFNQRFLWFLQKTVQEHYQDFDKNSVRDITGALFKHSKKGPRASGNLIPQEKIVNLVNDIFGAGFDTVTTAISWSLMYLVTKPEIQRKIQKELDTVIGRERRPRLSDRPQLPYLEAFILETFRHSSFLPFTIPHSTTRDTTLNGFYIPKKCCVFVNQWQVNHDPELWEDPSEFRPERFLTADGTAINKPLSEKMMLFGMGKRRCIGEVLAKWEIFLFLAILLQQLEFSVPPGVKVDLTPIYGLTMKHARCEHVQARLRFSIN
Sequence of purified human serum albumin (P02768 25-609): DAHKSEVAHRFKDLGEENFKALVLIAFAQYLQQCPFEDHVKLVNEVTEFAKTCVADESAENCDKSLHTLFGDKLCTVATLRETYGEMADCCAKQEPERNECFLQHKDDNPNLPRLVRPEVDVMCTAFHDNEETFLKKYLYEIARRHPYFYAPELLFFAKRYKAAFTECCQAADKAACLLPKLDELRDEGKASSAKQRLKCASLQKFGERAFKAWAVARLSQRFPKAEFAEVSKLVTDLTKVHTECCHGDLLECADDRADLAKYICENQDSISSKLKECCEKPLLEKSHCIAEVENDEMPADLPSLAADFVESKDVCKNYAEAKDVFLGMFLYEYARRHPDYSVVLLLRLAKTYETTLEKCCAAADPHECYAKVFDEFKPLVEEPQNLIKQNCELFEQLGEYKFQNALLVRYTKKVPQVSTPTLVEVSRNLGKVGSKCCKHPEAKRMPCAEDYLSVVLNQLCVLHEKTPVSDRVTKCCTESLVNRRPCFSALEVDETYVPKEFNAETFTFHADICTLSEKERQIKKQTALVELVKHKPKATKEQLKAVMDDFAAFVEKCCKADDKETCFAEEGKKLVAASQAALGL

Cc1nccn1C[C@H]1CCc2c(c3cccc4c3n2CCC4)C1=O [Cilansetron, (R)-(−)-4,5,6,8,9,10-hexahydro-10-[(2-methyl-1H-imidazol-1-yl)methyl]-11H-pyrido-[3,2,1-jk]-carbazol-11-one]
gastric emptying time Tlag (healthy subjects; 4 mg TID oral 14 days): 1.70 (0.22) hours
gastric emptying time T½ (healthy subjects; 4 mg TID oral 14 days): 2.46 (0.35) hours
gastric emptying time Tlag (healthy subjects; 8 mg TID oral 14 days): 1.63 (0.30) hours
gastric emptying time T½ (healthy subjects; 8 mg TID oral 14 days): 2.38 (0.42) hours
AUC (clinical [1]; AUC(0-τ), Geom. LS Mean): 334 ng·h/mL
Cmax (clinical [1]): 94.4 ng/mL
Cmax (clinical [1]; Geom. LS Mean): 83.9 ng/mL
Tmax (clinical [1]; Tmax): 0.75 h
half-life (clinical [1]; T½): 8.16 h
Vd/F (clinical [1]; Vz/F): 388 L
half-life (clinical [2]; both, 16 mg): 1.35 h
Tmax (clinical [2]; both, 32 mg): 1 h
AUC (clinical [2]; both, 32 mg): 451 ng·h/mL
Cmax (clinical [2]; both, 32 mg): 216 ng/mL
half-life (clinical [2]; both, 32 mg): 1.22 h
Tmax (clinical [2]; female, 32 mg): 1 h
AUC (clinical [2]; female, 32 mg): 405 ng·h/mL
Cmax (clinical [2]; female, 32 mg): 210 ng/mL
half-life (clinical [2]; female, 32 mg): 1.08 h
Tmax (clinical [2]; female, po, 16 mg): 1 h
Tmax (clinical [2]; female, po, 32 mg): 1 h
AUC (clinical [2]; female, po, 32 mg): 433 ng·h/mL
Cmax (clinical [2]; female, po, 32 mg): 270 ng/mL
half-life (clinical [2]; female, po, 32 mg): 1.01 h
Tmax (clinical [2]; male, 32 mg): 1 h
AUC (clinical [2]; male, 32 mg): 354 ng·h/mL
Cmax (clinical [2]; male, 32 mg): 140 ng/mL
half-life (clinical [2]; male, 32 mg): 1.4 h
Tmax (clinical [2]; male, po, 16 mg): 1 h
Tmax (clinical [2]; male, po, 32 mg): 1.5 h
AUC (clinical [2]; male, po, 32 mg): 469 ng·h/mL
Cmax (clinical [2]; male, po, 32 mg): 161 ng/mL
half-life (clinical [2]; male, po, 32 mg): 1.44 h
Binding to AAG [3]: around 90%
Binding to human albumin [4]: 65.9%
Plasma binding ([5]; dog): 86.5%
Plasma binding ([5]; mouse): 83.3%
Plasma binding ([5]; rat): 88.2%
IC50 (CYP1A2): 60 µM
Subjects “not at all or rarely” bothered by IBS symptoms ([6]; Endpoint): 54%
Subjects worsened from Baseline, interruption of activities ([6]; Month 1): 5%
Percentage of Subjects Who Worsened from Baseline: Interruption of Activities ([6]; Month 1): 5%
Percentage of Subjects Who Worsened from Baseline: Interruption of Activities ([6]; Month 3): 3%
Percentage of Subjects Who Worsened from Baseline: Interruption of Activities ([6]; Month 6): 2%
